From the supplement of paper PMC11451515

System: SEM cells
Test: cell viability relative to DMSO control; higher = less cytotoxic
Conditions: 48 h
How it was run: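 NOMO1 or SEM (500 cells/well) or P12-Ichikawa (1000 cells/well) leukemia cells were adapted for at least four passages in each medium. They were seeded in 1536-well plates (5 μl) and pin-dosed with library compounds in DMSO over an 11-point threefold series, 47 μM to 0.79 nM. CellTiter-Glo One luminescence was read after 48 h at 37°C. Viability is the per-plate percentage relative to DMSO wells, with cell-free wells as background.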

CO/N=C(/C(=O)N[C@@H]1C(=O)N2C(C(=O)O)=C(Cn3ccc(=N)n3CCO)CS[C@H]12)c1csc(N)n1
cell viability [%]
Conditions	HPLM + 10% dialyzed FBS	RPMI 5 mM glucose + 10% FBS
0.000781 µM	88.8	123
0.00234 µM	90.5	95
0.00702 µM	115	130
0.0211 µM	108	136
0.0632 µM	112	130
0.19 µM	122	140
0.569 µM	97.6	125
1.71 µM	117	147
5.12 µM	121	122
15.4 µM	132	151
46.1 µM	127	138
